Like-named read-outs stand apart in the source and are kept apart here.
What was measured:
Assay type in all cases: cell-based, human
MYB mRNA = assay: RT-qPCR splicing assay, MYB canonical (CJ) and alternative (AJ) junction mRNA; conditions: Homo sapiens; for AC50: read-out: MYB AJ (AC50, increase in AJ mRNA)
Procedure, shortened: (§1)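 Cells: A673 (DMEM/10% FBS, plated 24 h before) or K562 (IMDM/10% FBS). Dosing: 11-pt 3-fold series, 10 uM top final, ≤0.25% DMSO, 24 h, 37 °C/5% CO2. Readout: RT-qPCR of CJ and AJ junctions, housekeeper-normalized, RQ = 2^(-ΔΔCt) vs DMSO.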

HTT mRNA = assay: RT-qPCR splicing assay, HTT canonical (CJ) and alternative (AJ) junction mRNA; conditions: Homo sapiens; for AC50: read-out: HTT AJ (AC50, increase in AJ mRNA)
Procedure, shortened: as §1

SMN2 mRNA = assay: RT-qPCR splicing assay panel, SMN2 canonical junction (CJ) mRNA; conditions: Homo sapiens
Procedure, shortened: as §1

Target C mRNA = assay: RT-qPCR splicing assay panel, Target C canonical junction (CJ) mRNA; conditions: Homo sapiens
Procedure, shortened: as §1

[1] = 24 h, Table 3A, A673 or K562 cells, 24 h treatment
[2] = 24 h, Table 3A, A673 or K562 cells, 24 h treatment, read-out: MYB CJ (IC50, decrease in CJ mRNA)
[3] = canonical junction (CJ) mRNA, RT-qPCR panel, Table 4A, read-out: MYB, decrease in CJ mRNA levels, IC50
[4] = 24 h, Table 3A, A673 or K562 cells, 24 h treatment, read-out: HTT CJ (IC50, decrease in CJ mRNA)
[5] = canonical junction (CJ) mRNA, RT-qPCR panel, Table 4A, read-out: HTT, decrease in CJ mRNA levels, IC50
[6] = canonical junction (CJ) mRNA, RT-qPCR panel, Table 4A, read-out: SMN2, decrease in CJ mRNA levels, IC50
[7] = canonical junction (CJ) mRNA, RT-qPCR panel, Table 4A, read-out: Target C, decrease in CJ mRNA levels, IC50
[8] = 24 h, Table 3B, A673 or K562 cells, 24 h treatment
[9] = 24 h, Table 3B, A673 or K562 cells, 24 h treatment, read-out: MYB CJ (IC50, decrease in CJ mRNA)
[10] = Table 4B, gene panel, read-out: MYB (IC50, decrease in CJ mRNA levels)
[11] = 24 h, Table 3B, A673 or K562 cells, 24 h treatment, read-out: HTT CJ (IC50, decrease in CJ mRNA)
[12] = Table 4B, gene panel, read-out: HTT (IC50, decrease in CJ mRNA levels)
[13] = Table 4B, gene panel, read-out: SMN2 (IC50, decrease in CJ mRNA levels)
[14] = Table 4B, gene panel, read-out: Target C (IC50, decrease in CJ mRNA levels)

SMILES	AC50 (MYB mRNA; [1])	IC50 (MYB mRNA; [2])	IC50 (MYB mRNA; [3])	AC50 (HTT mRNA; [1])	IC50 (HTT mRNA; [4])	IC50 (HTT mRNA; [5])	IC50 (SMN2 mRNA; [6])	IC50 (Target C mRNA; [7])	AC50 (MYB mRNA; [8])	IC50 (MYB mRNA; [9])	IC50 (MYB mRNA; [10])	AC50 (HTT mRNA; [8])	IC50 (HTT mRNA; [11])	IC50 (HTT mRNA; [12])	IC50 (SMN2 mRNA; [13])	IC50 (Target C mRNA; [14])
Cc1ncc(-c2ccc(-c3ccc(N4CC[C@@H](NCC5CC5)C4)nn3)c(O)c2)s1 [Compound 379, 2-{6-[(3R)-3-[(cyclopropylmethyl)amino]pyrrolidin-1-yl]pyridazin-3-yl}-5-(2-methyl-1,3-thiazol-5-yl)phenol]	< 100 nM	< 100 nM	< 100 nM	< 100 nM	< 100 nM	< 100 nM	< 100 nM	< 100 nM								
Cc1ncc(-c2cc(O)c(-c3ccc(N4CC[C@H](CNC5CCC5)C4)nn3)cc2F)s1 [Compound 454]			1000 to 10000 nM			< 100 nM	< 100 nM	100 to 1000 nM								
COc1cc(-c2ccc(-c3ccc(N4CC(F)[C@@H](NC(C)(C)C)C4)nn3)c(O)c2)cnn1 (stereo in doubt) [Compound 217, 2-{6-[(3S,4R)-3-(tert-butylamino)-4-fluoropyrrolidin-1-yl]pyridazin-3-yl}-5-(6-methoxypyridazin-4-yl)phenol]	1000 to 10000 nM	100 to 1000 nM	100 to 1000 nM	100 to 1000 nM	100 to 1000 nM	100 to 1000 nM	< 100 nM	100 to 1000 nM								
Cn1ccc2cc(O)c(-c3cnc(N4CCC(NC(C)(C)C)C4)nn3)cc2c1=O (centres unmarked) [Compound 869]									> 10000 nM	> 10000 nM	> 10000 nM	> 10000 nM	> 10000 nM	> 10000 nM	> 10000 nM	> 10000 nM
Cc1ncc(-c2ccc(-c3ccc(N4CCC(NC5CCC5)C4)nn3)nc2F)s1 (centres unmarked) [Compound 349]	100 to 1000 nM	100 to 1000 nM	100 to 1000 nM	100 to 1000 nM	100 to 1000 nM	100 to 1000 nM	100 to 1000 nM	1000 to 10000 nM								
Cn1c(=O)oc2cc(-c3ccc(N4CCC(NC(C)(C)C)C4)nn3)c(O)cc21 (centres unmarked) [Compound 800]									100 to 1000 nM	1000 to 10000 nM	1000 to 10000 nM	100 to 1000 nM	100 to 1000 nM	100 to 1000 nM	< 100 nM	100 to 1000 nM
Cc1ccc2cc(-c3ccc(N4CCC(NC(C)(C)C)C4)nn3)c(O)cc2n1 (centres unmarked) [Compound 817]									> 10000 nM	> 10000 nM	> 10000 nM	> 10000 nM	> 10000 nM	> 10000 nM	1000 to 10000 nM	> 10000 nM
Oc1cc(-c2cn[nH]c2)ccc1-c1ccc(N2CCC(NC3(CF)CC3)C2)nn1 (centres unmarked) [Compound 112, 2-[6-(3-{[1-(fluoromethyl)cyclopropyl]amino}pyrrolidin-1-yl)pyridazin-3-yl]-5-(1H-pyrazol-4-yl)phenol]	< 100 nM	100 to 1000 nM	100 to 1000 nM	< 100 nM	< 100 nM	< 100 nM	< 100 nM	100 to 1000 nM								
CC1(NC2CCN(c3ccc(-c4ccc(-c5cn[nH]c5)cc4O)nn3)C2)CC1 (centres unmarked) [Compound 107, 2-(6-{3-[(1-methylcyclopropyl)amino]pyrrolidin-1-yl}pyridazin-3-yl)-5-(1H-pyrazol-4-yl)phenol]	< 100 nM	< 100 nM	< 100 nM	< 100 nM	< 100 nM	< 100 nM	< 100 nM	< 100 nM								
Oc1cc(-n2cnnc2)c(F)cc1-c1ccc(N2CCC(NC3CCC3)C2)nn1 (centres unmarked) [Compound 315]	> 10000 nM	> 10000 nM	> 10000 nM	1000 to 10000 nM	1000 to 10000 nM	1000 to 10000 nM	1000 to 10000 nM	> 10000 nM								
Oc1cc(-c2cn[nH]c2)ccc1-c1ccc(N2CCC(NC3(C(F)F)CC3)C2)nn1 (centres unmarked) [Compound 117, 2-[6-(3-{[1-(difluoromethyl)cyclopropyl]amino}pyrrolidin-1-yl)pyridazin-3-yl]-5-(1H-pyrazol-4-yl)phenol]	> 10000 nM	> 10000 nM	> 10000 nM	1000 to 10000 nM	1000 to 10000 nM	1000 to 10000 nM	100 to 1000 nM	> 10000 nM								
Cc1nc2ccc(-c3ccc(N4CCC(NC(C)(C)C)C4)nn3)nc2o1 (centres unmarked) [Compound 832]									100 to 1000 nM	100 to 1000 nM	100 to 1000 nM	100 to 1000 nM	< 100 nM	< 100 nM	< 100 nM	100 to 1000 nM
Cc1nc2cc(O)c(-c3ccc(N4CC[C@@H](NC(C)(C)C)C4)nn3)cc2o1 [Compound 812]									100 to 1000 nM	100 to 1000 nM	100 to 1000 nM	< 100 nM	< 100 nM	< 100 nM	< 100 nM	100 to 1000 nM
COc1cc(-c2ccc(-c3ccc(N4CC[C@@H](CNC5CCC5)C4)nn3)c(O)c2)cnn1 [Compound 440, 2-{6-[(3S)-3-[(cyclobutylamino)methyl]pyrrolidin-1-yl]pyridazin-3-yl}-5-(6-methoxypyridazin-4-yl)phenol]	100 to 1000 nM	100 to 1000 nM	100 to 1000 nM	100 to 1000 nM	< 100 nM	< 100 nM	< 100 nM	100 to 1000 nM								
Cn1ncc(-c2ccc(-c3ccc(N4CC[C@H](NC(C)(C)C)C4)nn3)c(O)c2)cc1=O [Compound 298, 5-(4-{6-[(3S)-3-(tert-butylamino)pyrrolidin-1-yl]pyridazin-3-yl}-3-hydroxyphenyl)-2-methylpyridazin-3-one]	100 to 1000 nM	100 to 1000 nM	100 to 1000 nM	100 to 1000 nM	< 100 nM	< 100 nM	< 100 nM	100 to 1000 nM								
